Measurements: patent publication US10287277B2, “Fumagillol derivatives and polymorphs thereof” (SynDevRx, Inc., priority 2015, dated 2019)

Experiments:
[1] = Storage stability, 40° C., 75% RH; type: physicochemical; conditions: for Appearance / Impurity Compound 2 / Impurity Compound 4 / Impurity Compound 5 / Largest individual unknown impurity / Total Impurities / Water Content: 40° C., 75% RH
Description: (§1) As shown below, the compounds can remain >99% pure after being held at 25° C. and 60% relative humidity for six months. The compounds can remain >95% pure after being held at 40° C. and 75% relative humidity for six months.

[2] = Storage stability, 25° C., 60% RH; type: physicochemical; conditions: for Appearance / Impurity Compound 2 / Impurity Compound 4 / Impurity Compound 5 / Largest individual unknown impurity / Total Impurities / Water Content: 25° C., 60% RH
Description: as §1

[3] = system: SU-DHL-10 (Diffuse Large B-Cell Lymphoma); assay: Single agent cell viability assay (CellTiter-Glo), 72 h continuous exposure; type: cell-based; conditions: Homo sapiens, SU-DHL10, SU-DHL-10 cells
Description: (§2) The half-maximal inhibitory concentration(s) (IC50) of Formula I as a single agent against a panel of human hematological tumor cell lines was investigated. All cell lines were grown in their respective proper growth media supplemented with 5-10% FBS and housed in an atmosphere of 5% CO2 at 37° C.
(§3) Cell Viability Assay—72 Hours Continuous Exposure Time
(§4) 1. 0 hr: Cells were plated in growth media in 96-well microtiter plates at a 200 μL volume. Cells were incubated for 24 hours at 37° C. in a humidified incubator.
(§5) 2. 24 hr: The test agent's drug doses were achieved using HP D300 Digital Dispenser. Briefly, the digital dispenser added test agent in a DMSO solvent at precise volumes to media containing wells. Control wells received equivolumes of DMSO that test agents wells received. Following drugging, cells were exposed at the concentrations and dilutions described in Table 20 for 72 hours at 37° C. in a humidified incubator.
(§6) 3. 72 hr: Following 72 hour exposure, 100 μl of a 1:1 mixture of sterile water and CellTiter-Glo® Reagent was added to each well. The plates are incubated for 60 minutes at room temperature. After incubation, luminescence was recorded using a luminometer. The results are shown below in Table 21 and in FIGS. 15A, 15B, 15C and 15D.
(§7) Data is expressed as the percent cell growth of the untreated (vehicle) control calculated from the luminescence signals. The surviving fraction of cells was determined by dividing the mean luminescence values of the test agents by the mean luminescence values of untreated control. The inhibitory concentration value for the test agent(s) and control was estimated using Prism 6 software (GraphPad Software, Inc.) by curve-fitting the data using the non-linear regression analysis.

BC-1 (B-Cell Lymphoma) = assay: as above; type: cell-based; conditions: Homo sapiens, BC1, BC-1 cells
Description: as §2, §3, §4, §5, §6, §7

[4] = system: Jeko-1 (Mantle Cell Lymphoma); assay: as above; type: cell-based; conditions: Homo sapiens, Jeko-1 cells
Description: as §2, §3, §4, §5, §6, §7

U266 (Myeloma) = assay: as above; type: cell-based; conditions: Homo sapiens, U-266, U266 cells
Description: as §2, §3, §4, §5, §6, §7

[5] = Stability of salt forms versus free base (statement in words); conditions: comparison of free base, hemi-tartrate and benzenesulfonic acid salt

Which results are given for `CO[C@@H]1[C@H](OC(=O)N[C@H]2CC[C@H](N)CC2)CC[C@]2(CO2)[C@H]1[C@@]1(C)O[C@@H]1CC=C(C)C.O=S(=O)(O)c1ccccc1` [Form II of Formula I, fumagill-6-yl N-(trans-4-aminocyclohexyl)carbamate benzenesulfonic acid salt]?
Appearance ([1]; 0 Months): White powder,; Impurity Compound 2 ([1]; 0 Months): <0.1%; Impurity Compound 4 ([1]; 0 Months): <0.1%; Impurity Compound 5 ([1]; 0 Months): 0.1%; Largest individual unknown impurity ([1]; 0 Months): <0.1%; Total Impurities ([1]; 0 Months): 0.1%; Water Content ([1]; 0 Months): 0.41%; Appearance ([1]; 1 Month): White powder,; Impurity Compound 2 ([1]; 1 Month): 1.0%; Impurity Compound 5 ([1]; 1 Month): 0.1%; Largest individual unknown impurity ([1]; 1 Month): 0.2%; Total Impurities ([1]; 1 Month): 1.5%; Water Content ([1]; 1 Month): 1.54%; Appearance ([1]; 2 Months): White powder,; Impurity Compound 2 ([1]; 2 Months): 1.4%; Impurity Compound 4 ([1]; 2 Months): 0.3%; Impurity Compound 5 ([1]; 2 Months): 0.1%; Largest individual unknown impurity ([1]; 2 Months): 0.3%; Total Impurities ([1]; 2 Months): 2.4%; Water Content ([1]; 2 Months): 1.19%; Appearance ([1]; 3 Months): White powder,; Impurity Compound 2 ([1]; 3 Months): 1.6%; Impurity Compound 4 ([1]; 3 Months): 0.5%; Impurity Compound 5 ([1]; 3 Months): 0.2%; Largest individual unknown impurity ([1]; 3 Months): 0.4%; Total Impurities ([1]; 3 Months): 3.1%; Water Content ([1]; 3 Months): 2.57%; Appearance ([1]; 6 months): White powder,; Impurity Compound 2 ([1]; 6 months): 1.5%; Impurity Compound 4 ([1]; 6 months): 1.4%; Impurity Compound 5 ([1]; 6 months): 0.5%; Largest individual unknown impurity ([1]; 6 months): 0.3%; Total Impurities ([1]; 6 months): 4.2%; Water Content ([1]; 6 months): 3.19%; purity remaining after storage ([1]; held at 40° C. and 75% relative humidity for six months): > 95%; Appearance ([2]; 0 Months): White powder,; Impurity Compound 2 ([2]; 0 Months): <0.1%; Impurity Compound 4 ([2]; 0 Months): <0.1%; Impurity Compound 5 ([2]; 0 Months): 0.1%; Largest individual unknown impurity ([2]; 0 Months): <0.1%; Total Impurities ([2]; 0 Months): 0.1%; Water Content ([2]; 0 Months): 0.41%; Appearance ([2]; 1 Month): White powder,; Impurity Compound 2 ([2]; 1 Month): 0.3%; Impurity Compound 5 ([2]; 1 Month): 0.1%; Largest individual unknown impurity ([2]; 1 Month): <0.1%; Total Impurities ([2]; 1 Month): 0.5%; Water Content ([2]; 1 Month): 0.60%; Appearance ([2]; 2 Months): White powder,; Impurity Compound 2 ([2]; 2 Months): 0.4%; Impurity Compound 4 ([2]; 2 Months): 0.1%; Impurity Compound 5 ([2]; 2 Months): 0.1%; Largest individual unknown impurity ([2]; 2 Months): <0.1%; Total Impurities ([2]; 2 Months): 0.5%; Water Content ([2]; 2 Months): 0.57%; Appearance ([2]; 3 Months): White powder,; Impurity Compound 2 ([2]; 3 Months): 0.5%; Impurity Compound 4 ([2]; 3 Months): 0.1%; Impurity Compound 5 ([2]; 3 Months): 0.1%; Largest individual unknown impurity ([2]; 3 Months): <0.1%; Total Impurities ([2]; 3 Months): 0.7%; Water Content ([2]; 3 Months): 1.73%; Appearance ([2]; 6 months): White powder,; Impurity Compound 2 ([2]; 6 months): 0.6%; Impurity Compound 4 ([2]; 6 months): 0.1%; Impurity Compound 5 ([2]; 6 months): 0.1%; Largest individual unknown impurity ([2]; 6 months): <0.1%; Total Impurities ([2]; 6 months): 0.9%; Water Content ([2]; 6 months): 1.58%; purity remaining after storage ([2]; held at 25° C. and 60% relative humidity for six months): > 99%

What does the source list for `COc1cccc2c1C(=O)c1c(O)c3c(c(O)c1C2=O)C[C@@](O)(C(=O)CO)C[C@@H]3O[C@H]1C[C@H](N)[C@H](O)[C@H](C)O1` [Adriamycin, reference compound]?
IC50 [3]: 0.00085 µM; IC50 (BC-1 (B-Cell Lymphoma)): 0.02 µM

Which IC50 [4] does the source give for `COC1C(OC(=O)N[C@H]2CC[C@H](N)CC2)CC[C@]2(CO2)C1C1(C)O[C@@H]1CC=C(C)C` (stereo partly drawn) [Formula I, (1R,4r)-4-(((((3R,4S,5S,6R)-5-methoxy-4-((2R,3R)-2-methyl-3-(3-methylbut-2-en-1-yl)oxiran-2-yl)-1-oxaspiro[2.5]octan-6-yl)oxy)carbonyl)amino)cyclohexan-1-aminium benzenesulfonate] here?
Its IC50 is 30.7 µM.

And the IC50 (U266 (Myeloma))?
The IC50 was 54.6 µM.

And the IC50 [3]?
Its IC50 is 6.2 µM.

And the IC50 (BC-1 (B-Cell Lymphoma))?
Its IC50 is 20.4 µM.

Which “stability (in words)” value [5] does the source give for `COC1C(OC(=O)N[C@H]2CC[C@H](N)CC2)CCC2(CO2)C1C1(C)OC1CC=C(C)C` (stereo partly drawn) [free base form of Formula I, fumagill-6-yl N-(trans-4-aminocyclohexyl)carbamate] here?
Its value is “inherently unstable”.

Which results are given for `CC(C)C[C@H](NC(=O)[C@H](Cc1ccccc1)NC(=O)c1cnccn1)B(O)O` [Bortezomib, reference compound]?
IC50 [4]: 0.4 µM; IC50 (U266 (Myeloma)): 0.0024 µM
